# Reference: PMC5034043 (The Journal of Biological Chemistry, 2016)
# Read-outs that look alike come from different tables or passages of the source.
# Tested on: T1, synaptosomal proteome
# T1 construct: from tissue; host or cells: brain synaptosomes of male C57/B6 mice
# Format: binding, mouse
# Description: Synaptosomes were resuspended to 1 mg of protein/ml in HEPES buffer medium (in mM: 140 NaCl, 5 KCl, 5 NaHCO3, 1.2 NaH2PO4, 1 MgCl2, 10 glucose, and 10 HEPES (pH 7.4)). […] The samples were allowed to equilibrate for 5 min before being transferred to a parafilm-sealed 1-mm path length quartz cuvette. The sample was then irradiated for 20 min at a peak bandwidth of 350 nm (Rayonet RPR-3500 lamp) ∼6 cm from the light source. Non-irradiated samples were left in the dark at ambient temperature (22–25 °C) for 20 min. All remaining procedures were conducted with restricted light exposure.
# To 750 μg of photolabeled or control synaptosome samples, 40 μl of 10% SDS and 2 μl of 5 mM DTT in water were added. Samples were then vortexed, heated for 10 min at 65 °C, and then briefly cooled. Final concentrations of 150 μM azide-biotin (Click Chemistry Tools), 2 mM tris(3-hydroxypropyltriazolylmethyl)amine (Sigma), 1 mM ascorbic acid (Sigma), and 1 mM CuSO4·5H2O (Sigma) were added to each sample and vortexed vigorously. The samples were left in the dark at ambient temperature (22–25 °C) for 1 h with mild agitation. Directly to each sample 4× volume chilled methanol, 1.5× chilled chloroform, and 3× chilled double distilled H2O were added. Samples were vortexed vigorously and centrifuged at 1,400 × g for 30 min at 4 °C. Both liquid layers were carefully removed, and the protein pellet was washed with 2 ml of 1:1 (v/v) chilled methanol/chloroform. Samples were centrifuged at 3,500 × g for 30 min at 4 °C. Protein pellets were briefly air-dried before further processing.
# 750 μg of biotin-conjugated protein sample was resuspended in 500 μl of 25 mM NH4HCO3 and 6 M urea in water. Next, 150 μl of 5% Triton X-100 in water, 50 μl of 10% SDS in water, and 1.5 μl of 0.5 M DTT were added. The samples were heated for 15 min at 65 °C. After briefly cooling, 14 μl of 0.5 M iodoacetamide in water was added, and the sample was left in the dark for 45 min. […] The supernatant was diluted to 4 ml with PBS, and 2 ml of PBS containing 100 μl of 50% streptavidin-agarose resin (Thermo Scientific) was added. Biotinylated proteins within the sample were captured over resin overnight at 4 °C with mild agitation. The resin was first washed with 6 ml of 1% SDS in PBS, and then 7 ml of 0.1 M urea in PBS followed by 10 ml of PBS. The resin underwent a final wash with 0.9 ml of 50 mM Tris-HCl and 1 mM CaCl2 in water (pH 8.0) and then resuspended in 200 μl of 50 mM Tris-HCl, 1 mM CaCl2 in water (pH 8.0), and 2 μg of porcine sequencing grade trypsin (Promega). Samples were digested overnight at 37 °C. Samples were then centrifuged at 2,000 × g for 4 min, and digest supernatant was decanted. Beads were washed in 100 μl of PBS centrifuged at 5,200 × g for 5 min, and the wash was combined with the digest supernatant. To the combined sample, trifluoroacetic acid (TFA) was added to 0.4% (v/v) or until pH <2. The sample was desalted with Oasis C18 10-mg columns (Waters) as described previously ([66]). The eluted sample was dried by speed vac and resuspended in 0.1 M HEPES buffer (pH 8.5). […] Appropriate corresponding TMTsixplex^TM-labeled samples were pooled and dried by speed vac. The combined samples were resuspended in 0.5% acetic acid in water and pH-corrected with acetic acid until pH was <2. 40 μg of protein was desalted with C18 stage tips prepared in-house and dried by speed vac.
# Samples were resuspended in 10 mM KH2PO4 (pH 2.6), 30% acetonitrile (v/v) in water, and fractionated by off-line strong cation exchange chromatography prior to mass spectrometry (MS) analysis similar to as reported previously ([66]). The full synaptosome proteome control was prepared similarly without TMTsixplex^TM labeling.
# All TMT samples were analyzed with three-stage mass spectrometry (MS3) TMTsixplex^TM quantification workflow as described previously ([34]).
# [1] = protein P27671 Ras-specific guanine nucleotide-releasing factor 1 (Rasgrf1)
# [2] = protein P35762 CD81 antigen (Cd81)
# [3] = protein P46096 Synaptotagmin-1 (Syt1)
# [4] = protein P50544 Very long-chain specific acyl-CoA dehydrogenase, mitochondrial (Acadvl)
# [5] = protein P50571 Gamma-aminobutyric acid receptor subunit beta-1 (Gabrb1)
# [6] = protein P56564 Excitatory amino acid transporter 1 (Slc1a3)
# [7] = protein P60879 Synaptosomal-associated protein 25 (Snap25)
# [8] = protein P61264 Syntaxin-1B (Stx1b)
# [9] = protein P62204 Calmodulin (Calm1)
# [10] = protein P63328 Serine/threonine-protein phosphatase 2B catalytic subunit alpha isoform (Ppp3ca)
# [11] = protein Q2TPA8 Hydroxysteroid dehydrogenase-like protein 2 (Hsdl2)
# [12] = protein Q3TXX4 Vesicular glutamate transporter 1 (Slc17a7)
# [13] = protein Q3UN02 Lysocardiolipin acyltransferase 1 (Lclat1)
# [14] = protein Q4W8U9 Scg2 protein (Scg2)
# [15] = protein Q5U458 DnaJ homolog subfamily C member 11 (Dnajc11)
# [16] = protein Q7TME0 Lipid phosphate phosphatase-related protein type 4 (Lppr4)
# [17] = protein Q7TQ95 Protein lunapark (Lnp)
# [18] = protein Q8BFT9 Synaptic vesicle 2-related protein (Svop)
# [19] = protein Q8BG39 Synaptic vesicle glycoprotein 2B (Sv2b)
# [20] = protein Q8BH59 Calcium-binding mitochondrial carrier protein Aralar1 (Slc25a12)
# [21] = protein Q8BH66 Atlastin-1 (Atl1)
# [22] = protein Q8BUN9 Protein Slc24a2 (Slc24a2)
# [23] = protein Q8BW75 Amine oxidase [flavin-containing] B (Maob)
# [24] = protein Q8CGK7 Guanine nucleotide-binding protein G(olf) subunit alpha (Gnal)
# [25] = protein Q8K0T0 Reticulon-1 (Rtn1)
# [26] = protein Q9CPQ3 Mitochondrial import receptor subunit TOM22 homolog (Tomm22)
# [27] = protein Q9CWK8 Sorting nexin-2 (Snx2)
# [28] = protein Q9D6J5 NADH dehydrogenase [ubiquinone] 1 beta subcomplex subunit 8, mitochondrial (Ndufb8)
# [29] = protein Q9D328 Transmembrane protein 35 (Tmem35)
# [30] = protein Q9ERS2 NADH dehydrogenase [ubiquinone] 1 alpha subcomplex subunit 13 (Ndufa13)
# [31] = protein Q9ESW4 Acylglycerol kinase, mitochondrial (Agk)
# [32] = protein Q9QXV0 ProSAAS (Pcsk1n)
# [33] = protein Q9QZM0 Ubiquilin-2 (Ubqln2)
# [34] = protein Q9R0K7 Plasma membrane calcium-transporting ATPase 2 (Atp2b2)
# [35] = protein Q9Z0V2 Potassium voltage-gated channel subfamily D member 2 (Kcnd2)
# [36] = protein Q67BT3 Solute carrier family 13 member 5 (Slc13a5)
# [37] = protein Q80X80 C2 domain-containing protein 2-like (C2cd2l)
# [38] = protein Q91YQ5 Dolichyl-diphosphooligosaccharide--protein glycosyltransferase subunit 1 (Rpn1)
# [39] = protein Q99PU5 Long-chain-fatty-acid--CoA ligase ACSBG1 (Acsbg1)
smiles,measurement,setting,value
"CC(C)c1cccc(C(C)C)c1O [propofol, 2,6-diisopropylphenol, reference compound]",% propofol protection,[1],54%
same,Log2( Mean 'UV/ UV+propofol'),[1],1.10
same,% propofol protection,protein P35564 Calnexin (Canx),54%
same,Log2( Mean 'UV/ UV+propofol'),protein P35564 Calnexin (Canx),1.07
same,% propofol protection,[2],58%
same,Log2( Mean 'UV/ UV+propofol'),[2],1.14
same,% propofol protection,[3],50%
same,Log2( Mean 'UV/ UV+propofol'),[3],0.95
same,% propofol protection,[4],51%
same,Log2( Mean 'UV/ UV+propofol'),[4],0.99
same,% propofol protection,[5],58%
same,Log2( Mean 'UV/ UV+propofol'),[5],1.06
same,Log2( Mean 'UV/ UV+propofol'),"protein P56480 ATP synthase subunit beta, mitochondrial (Atp5b)",1.15
same,% propofol protection,[6],56%
same,Log2( Mean 'UV/ UV+propofol'),[6],1.10
same,% propofol protection,[7],57%
same,Log2( Mean 'UV/ UV+propofol'),[7],1.12
same,% propofol protection,[8],57%
same,Log2( Mean 'UV/ UV+propofol'),[8],1.14
same,% propofol protection,[9],53%
same,Log2( Mean 'UV/ UV+propofol'),[9],0.97
same,% propofol protection,[10],52%
same,Log2( Mean 'UV/ UV+propofol'),[10],0.93
same,% propofol protection,[11],53%
same,Log2( Mean 'UV/ UV+propofol'),[11],1.03
same,% propofol protection,[12],57%
same,Log2( Mean 'UV/ UV+propofol'),[12],1.15
same,% propofol protection,[13],52%
same,Log2( Mean 'UV/ UV+propofol'),[13],1.03
same,% propofol protection,[14],53%
same,Log2( Mean 'UV/ UV+propofol'),[14],0.99
same,Log2( Mean 'UV/ UV+propofol'),protein Q5IRJ6 Zinc transporter 9 (Slc30a9),1.17
same,% propofol protection,[15],53%
same,Log2( Mean 'UV/ UV+propofol'),[15],0.96
same,% propofol protection,[16],57%
same,Log2( Mean 'UV/ UV+propofol'),[16],1.08
same,% propofol protection,[17],58%
same,Log2( Mean 'UV/ UV+propofol'),[17],1.23
same,% propofol protection,[18],53%
same,Log2( Mean 'UV/ UV+propofol'),[18],0.94
same,% propofol protection,[19],50%
same,Log2( Mean 'UV/ UV+propofol'),[19],0.94
same,Log2( Mean 'UV/ UV+propofol'),protein Q8BG51 Mitochondrial Rho GTPase 1 (Rhot1),1.18
same,Log2( Mean 'UV/ UV+propofol'),protein Q8BH24 Transmembrane 9 superfamily member 4 (Tm9sf4),1.11
same,% propofol protection,[20],50%
same,Log2( Mean 'UV/ UV+propofol'),[20],0.98
same,% propofol protection,[21],57%
same,Log2( Mean 'UV/ UV+propofol'),[21],1.14
same,% propofol protection,[22],52%
same,Log2( Mean 'UV/ UV+propofol'),[22],1.03
same,% propofol protection,[23],56%
same,Log2( Mean 'UV/ UV+propofol'),[23],1.10
same,% propofol protection,[24],55%
same,Log2( Mean 'UV/ UV+propofol'),[24],1.05
same,% propofol protection,[25],57%
same,Log2( Mean 'UV/ UV+propofol'),[25],1.05
same,Log2( Mean 'UV/ UV+propofol'),"protein Q8VCX5 Calcium uptake protein 1, mitochondrial (Micu1)",1.09
same,% propofol protection,[26],57%
same,Log2( Mean 'UV/ UV+propofol'),[26],1.05
same,% propofol protection,[27],51%
same,Log2( Mean 'UV/ UV+propofol'),[27],1.00
same,% propofol protection,[28],57%
same,Log2( Mean 'UV/ UV+propofol'),[28],1.23
same,% propofol protection,[29],55%
same,Log2( Mean 'UV/ UV+propofol'),[29],1.10
same,% propofol protection,[30],53%
same,Log2( Mean 'UV/ UV+propofol'),[30],0.98
same,% propofol protection,[31],58%
same,Log2( Mean 'UV/ UV+propofol'),[31],1.18
same,Log2( Mean 'UV/ UV+propofol'),protein Q9JIG8 PRA1 family protein 2 (Praf2),1.23
same,% propofol protection,[32],57%
same,Log2( Mean 'UV/ UV+propofol'),[32],1.11
same,% propofol protection,[33],51%
same,Log2( Mean 'UV/ UV+propofol'),[33],0.96
same,% propofol protection,[34],51%
same,Log2( Mean 'UV/ UV+propofol'),[34],1.00
same,Log2( Mean 'UV/ UV+propofol'),"protein Q9WU79 Proline dehydrogenase 1, mitochondrial (Prodh)",1.11
same,% propofol protection,[35],52%
same,Log2( Mean 'UV/ UV+propofol'),[35],1.01
same,% propofol protection,[36],57%
same,Log2( Mean 'UV/ UV+propofol'),[36],1.13
same,% propofol protection,[37],53%
same,Log2( Mean 'UV/ UV+propofol'),[37],1.04
same,% propofol protection,[38],55%
same,Log2( Mean 'UV/ UV+propofol'),[38],1.11
same,% propofol protection,[39],58%
same,Log2( Mean 'UV/ UV+propofol'),[39],1.12
same,Log2( Mean 'UV/ UV+propofol'),protein Q925I1 ATPase family AAA domain-containing protein 3 (Atad3),1.17
